Test results as given in ChEMBL document CHEMBL3112456, “Dual inhibition of HCV and HIV by ring-expanded nucleosides containing the 5:7-fused imidazo[4,5-e][1,3]diazepine ring system. In vitro results and implications” (Bioorg Med Chem Lett, 2014).
Converted amounts (≈) assume the structure as drawn. The source made the active and inactive calls. The rule behind the calls is not given here.

What was measured:
[1] = Cytotoxicity against human BM4-5 cells after 5 days by Neutral Red dye assay; type: cell-based; conditions: bm4-5, 120 h
Hepacivirus hominis [2] = experiment: Inhibition of NTPase activity of HCV NTPase/helicase using 1 x 10^-5 M gamma-[32P]ATP as substrate up to 0.7 mM after 30 mins
[3] = Selectivity index, ratio of beta-actin level in human HuH7 cells to viral RNA level in HCV infected in human Huh7 cells; parameters: species or system Huh-7
Hepatitis C virus [4] = experiment: Antiviral activity against HCV genotype 1b infected in human BM4-5 cells reduction in RNA level after 5 days by luciferase reporter gene assay relative to control; type: functional, organism-based, Hepacivirus hominis; conditions: BM4-5, 120 h
Huh-7 = experiment: Cytotoxicity against human HuH7 cells assessed as beta-actin levels relative to control; type: cell-based
Hepatitis C virus [5] = experiment: Antiviral activity against HCV infected in human Huh7 cells assessed as reduction in RNA level by luciferase reporter gene assay relative to control; type: functional, Hepacivirus hominis, Huh-7; parameters: scale not given: the % may be the effect or the level left
[6] = Inhibition of helicase activity of HCV NTPase/helicase using radio-labelled double-stranded DNA as substrate after 30 mins; parameters: species or system Hepacivirus hominis
Hepacivirus hominis [7] = experiment: Inhibition of helicase activity of HCV NTPase/helicase using radio-labelled double-stranded RNA as substrate after 30 mins
Hepacivirus hominis [8] = experiment: Inhibition of NTPase activity of HCV NTPase/helicase using 105 microM gamma-[32P]ATP as substrate up to 0.7 mM after 30 mins
Hepacivirus hominis [9] = experiment: Inhibition of helicase activity of HCV NTPase/helicase using radio-labelled double-stranded RNA as substrate up to 300 ug/ml after 30 mins
Hepacivirus hominis [10] = experiment: Inhibition of helicase activity of HCV NTPase/helicase using radio-labelled double-stranded DNA as substrate up to 300 ug/ml after 30 mins
[11] = system: Human immunodeficiency virus; experiment: Antiviral activity against HIV; type: functional, organism-based

CCCCCCCCCCCCCCCCCCNc1nc(=O)c2ncn([C@@H]3O[C@H](CO)[C@@H](O)[C@H]3O)c2c(=O)[nH]1
Activity [1]: Non-toxic
inhibition (Hepacivirus hominis [2]): inactive
Selectivity Index [3]: 10.89
IC50 (Hepatitis C virus [4]): 16 µM
Activity (Huh-7): 98%
Activity (Hepatitis C virus [5]): 9%
IC50 [6]: 6 µg/mL (≈ 10.6 µM)
inhibition (Hepacivirus hominis [7]): Active
inhibition (Hepacivirus hominis [8]): inactive

CCCCCCCCCCCCCCCCNc1nc(=O)c2ncn([C@@H]3O[C@H](CO)[C@@H](O)[C@H]3O)c2c(=O)[nH]1
inhibition (Hepacivirus hominis [9]): inactive
inhibition (Hepacivirus hominis [10]): inactive

NC(=O)c1ncn([C@@H]2O[C@H](CO)[C@@H](O)[C@H]2O)n1 [RIBAVIRIN]
Selectivity Index [3]: 0.14
Activity (Huh-7): 12%
Activity (Hepatitis C virus [5]): 89%

CCCCCCCCCCNc1nc(=O)c2ncn([C@@H]3C[C@H](O)[C@@H](CO)O3)c2c(=O)[nH]1
inhibition (Hepacivirus hominis [9]): inactive
inhibition (Hepacivirus hominis [10]): inactive

CCCCCCCCCCCCCCN
Activity (Hepatitis C virus [5]; Hepacivirus hominis, Huh-7): inactive
Activity [11]: inactive

CCCCCCCCCCCCNc1nc(=O)c2ncn([C@@H]3O[C@H](CO)[C@@H](O)[C@H]3O)c2c(=O)[nH]1
inhibition (Hepacivirus hominis [9]): inactive
inhibition (Hepacivirus hominis [10]): inactive

CCCCCCCCCCCCCCNc1nc(=O)c2ncn([C@@H]3O[C@H](CO)[C@@H](O)[C@H]3O)c2c(=O)[nH]1
inhibition (Hepacivirus hominis [9]): inactive
inhibition (Hepacivirus hominis [10]): inactive

CCCCCCCCCCCCCCCCCCNc1nc(=O)c2ncn([C@@H]3C[C@H](O)[C@@H](CO)O3)c2c(=O)[nH]1
Activity [1]: Non-toxic
inhibition (Hepacivirus hominis [2]): inactive
Selectivity Index [3]: 9.9
IC50 (Hepatitis C virus [4]): 18 µM
Activity (Huh-7): 99%
Activity (Hepatitis C virus [5]): 10%
IC50 [6]: 5.5 µg/mL (≈ 10 µM)
inhibition (Hepacivirus hominis [7]): Active
inhibition (Hepacivirus hominis [8]): inactive

CCCCCCCCCCCCCCCCCCN
Activity (Hepatitis C virus [5]; Hepacivirus hominis, Huh-7): inactive
Activity [11]: inactive

CCCCCCCCNc1nc(=O)c2ncn([C@@H]3C[C@H](O)[C@@H](CO)O3)c2c(=O)[nH]1
inhibition (Hepacivirus hominis [9]): inactive
inhibition (Hepacivirus hominis [10]): inactive

CCCCCCCCCCCCCCCCNc1nc(=O)c2ncn([C@@H]3C[C@H](O)[C@@H](CO)O3)c2c(=O)[nH]1
inhibition (Hepacivirus hominis [9]): inactive
inhibition (Hepacivirus hominis [10]): inactive

CCCCCCCCCCNc1nc(=O)c2ncn([C@@H]3O[C@H](CO)[C@@H](O)[C@H]3O)c2c(=O)[nH]1
inhibition (Hepacivirus hominis [9]): inactive
inhibition (Hepacivirus hominis [10]): inactive

CCCCCCCCNc1nc(=O)c2ncn([C@@H]3O[C@H](CO)[C@@H](O)[C@H]3O)c2c(=O)[nH]1
inhibition (Hepacivirus hominis [9]): inactive
inhibition (Hepacivirus hominis [10]): inactive

CCCCCCCCCCCCCCNc1nc(=O)c2ncn([C@@H]3C[C@H](O)[C@@H](CO)O3)c2c(=O)[nH]1
inhibition (Hepacivirus hominis [9]): inactive
inhibition (Hepacivirus hominis [10]): inactive
